Reference: publication PMC2745557 (FEBS letters, 2009)

Assays:
[1] = target: T1, Bombyx AKHR (Bombyx mori, UniProt Q8T6U9); settings: compared with AKH1; ref [12]; cited from earlier work
T1 sequence (Q8T6U9 1-405): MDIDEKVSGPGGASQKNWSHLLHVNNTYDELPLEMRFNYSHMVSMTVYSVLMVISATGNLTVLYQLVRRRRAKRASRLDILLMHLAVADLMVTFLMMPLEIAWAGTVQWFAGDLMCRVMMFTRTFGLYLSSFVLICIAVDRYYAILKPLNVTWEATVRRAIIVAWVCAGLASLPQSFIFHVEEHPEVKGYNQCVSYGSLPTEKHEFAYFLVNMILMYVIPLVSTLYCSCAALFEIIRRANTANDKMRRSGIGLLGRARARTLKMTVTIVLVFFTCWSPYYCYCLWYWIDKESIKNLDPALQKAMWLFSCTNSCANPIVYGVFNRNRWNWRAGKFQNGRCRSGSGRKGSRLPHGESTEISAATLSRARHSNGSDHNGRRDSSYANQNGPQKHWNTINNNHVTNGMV

[2] = target: T1, Bombyx AKHR; format: cell-based

In the case of “Heliothis zea hypertrehalosaemic hormone [Hez-HrTH]”, the “affinity of activation of Bombyx AKHR” value [1] is given as “higher affinity than that of AKH1”.

In the case of Pertussis toxin [PTX], the “effect of toxin pre-treatment on cAMP generation” value [2] is reported as “no effect on cAMP generation”.

With cholera toxin [CTX] the “effect of toxin pre-treatment on cAMP generation” value [2] was “remarkable increase in the cellular levels of cAMP”.
